PubChem BioAssay AID449760 (The Scripps Research Institute Molecular Screening Center, 2010)
Where “and” joins values, the source holds several entries; their conditions need not be identical. Equal values may be shown once. Calls of active or inactive are those of the source. No rule for the calls is given here.

These compounds were tested on NIH 3T3 STAT1-luciferase reporter, IFNg-stimulated, luminescence (assay: boost of IFNg-driven STAT1 luciferase signal – cell-based, luminescence, NIH 3T3, assay provider, late-stage follow-up (AID 449760)). Conditions: at 10 µM; stronger effect = higher value.

With CCOC(=O)/C(C#N)=C/c1cc(C)n(-c2ccccc2)c1C as the compound, how does the fold change vs IFNg read?
The fold change vs IFNg was 0.028 (inactive).

For Cc1cc(-c2ccc(F)cc2)n2ncc(-c3ccccc3)c2n1, which fold change vs IFNg is on record?
The fold change vs IFNg was 0.09 (inactive).

For COc1ccc2[nH]c3c(c2c1)CCn1c-3nc2ccccc2c1=O, which fold change vs IFNg is on record?
The fold change vs IFNg was 0.94 (inactive).

With Cc1ccc(C(=O)Nc2nc3ccccc3s2)s1 as the compound, how does the fold change vs IFNg read?
The fold change vs IFNg was 1.22 (inactive).

COc1ccc(-c2cc(C)nc3c(-c4ccccc4)cnn23)cc1 was tested. Which fold change vs IFNg did it give?
The fold change vs IFNg was 0.36 (inactive) and 0.19 (inactive).

For CCN(CC)c1ccc2cc(C(=O)Nc3ccccn3)c(=O)oc2c1, which fold change vs IFNg is on record?
Its fold change vs IFNg is 0.41 (inactive).

For O=C(/C=C/Nc1ccccc1F)c1ccc(Br)cc1, which fold change vs IFNg is on record?
Its fold change vs IFNg is 0.87 (inactive).

For COc1ccc(-c2csc(N3C(=O)CNC3=S)n2)cc1, which fold change vs IFNg is on record?
The fold change vs IFNg was 1.19 (inactive).

With Cc1nnc(SCC(=O)Nc2ccc(-c3nc4ccccc4s3)cc2)s1 as the compound, how does the fold change vs IFNg read?
Its fold change vs IFNg is 1 (inactive).

How did the fold change vs IFNg turn out when O=C(Nc1nc2ccccc2s1)c1cc2ccccc2s1 was run?
The fold change vs IFNg was 1.02 (inactive).

N#C/C(=C\c1ccc(N2CCOCC2)o1)c1nc2ccccc2[nH]1 was tested. Which fold change vs IFNg did it give?
Its fold change vs IFNg is 0.94 (inactive).

Which fold change vs IFNg does the source give for CC(=O)NC(=S)Nc1sc2c(c1C#N)CCCCC2 here?
The fold change vs IFNg was 0.45 (inactive).
